Columns and labels:
[1] = test system: acyl coenzyme-A:cholesterol-O-acyl transferase (ACAT;EC 2.3.1.26); assay: In vitro ACAT inhibition in rat liver microsomes incubated with radiolabelled oleoyl-CoA; assay type: biochemical
Protocol: In assays performed in vitro, microsomes (prepared from the livers of rats fed a diet supplemented with 0.5%w/w cholesterol and 0.25%w/w cholic acid for 7 days) were incubated with radiolabelled oleoyl-CoA in the presence of compounds according to the invention at a concentration (in »g/m1) as shown in Table 1.

plasma cholesterol level = assay: In vivo inhibition of the increase in plasma cholesterol level in cholesterol/cholic acid-fed rats; conditions: increase in plasma cholesterol level measured after 3 days, relative to control animals on cholesterol supplemented diet; for inhibition in vivo at 0.03 % strength / inhibition in vivo at 0.01 % strength: Rattus norvegicus, feed or water, 72 h, read-out: In-vivo % Reduction; for inhibition in vivo at 0.03 % strength / In-vivo % Reduction: dose 0.03 %w/w in diet; for inhibition in vivo at 0.01 % strength: dose 0.01 %w/w in diet
[2] = concentration 0.5 »g/m1, microsomes from livers of rats fed 0.5%w/w cholesterol and 0.25%w/w cholic acid for 7 days
[3] = concentration 1.0 »g/m1, microsomes from livers of rats fed 0.5%w/w cholesterol and 0.25%w/w cholic acid for 7 days

Row | Structure (SMILES) | In-vitro % Inhibition [1, 2] [%] | also measured
1 | c1ccc(-c2nc(SCCCSc3ccncc3)[nH]c2-c2ccccc2)cc1 [Compound B, 2-[3-(Pyrid-4-ylthio)propylthio]-4,5-diphenylimidazole] | 90 | inhibition in vivo at 0.03 % strength (plasma cholesterol level): 91%
2 | Cl.Cl.Cn1ccnc1SCCCSc1nc(-c2ccccc2)c(-c2ccccc2)[nH]1 [Compound D, 2-[3-(1-Methylimidazol-2-ylthio)propylthio]-4,5-diphenylimidazole dihydrochloride] | – | In-vivo % Reduction (plasma cholesterol level): 88%
3 | Cc1cc(C)nc(SCCCSc2nc(-c3ccccc3)c(-c3ccccc3)[nH]2)n1 [Compound G, 2-[3-(4,6-Dimethylpyrimidin-2-ylthio)propylthio]-4,5-diphenylimidazole] | 80 | –
4 | Cn1ccnc1S(=O)(=O)CCCSc1nc(-c2ccccc2)c(-c2ccccc2)[nH]1 [Compound H, 2-[3-(1-Methylimidazol-2-ylsulphonyl)propylthio]-4,5-diphenylimidazole] | 90 | inhibition in vivo at 0.03 % strength (plasma cholesterol level): 108%
5 | Cl.Cl.c1ccc(-c2nc(SCCCSc3nc(-c4ccccn4)c(-c4ccccn4)[nH]3)[nH]c2-c2ccccc2)cc1 [Compound K, 1-(4,5-Diphenylimidazol-2-ylthio)-3-[(4,5-dipyrid-2-yl)imidazol-2-ylthio]propane dihydrochloride] | 77 | inhibition in vivo at 0.01 % strength (plasma cholesterol level): 4%
6 | Cn1ccnc1S(=O)(=O)CCCCS(=O)(=O)c1nc(-c2ccccc2)c(-c2ccccc2)[nH]1 [Compound O, 2-[4-(1-Methylimidazol-2-ylsulphonyl)butylsulphonyl]-4,5-diphenylimidazole] | 23 | –
7 | Cn1ccnc1SCCCCCCSc1nc(-c2ccccc2)c(-c2ccccc2)[nH]1 [Compound R, 2-[6-(1-Methylimidazol-2-ylthio)hexylthio]-4,5-diphenylimidazole] | 95 | –
8 | c1ccc(-c2nc(SCCCCCCCCCSc3nc(-c4ccccc4)c(-c4ccccc4)[nH]3)[nH]c2-c2ccccc2)cc1 [Compound S, 1,9-Bis(4,5-diphenylimidazol-2-ylthio)nonane] | 77 | –
9 | Cn1ccnc1SCCCCCCCCCSc1nc(-c2ccccc2)c(-c2ccccc2)[nH]1 [Compound T, 2-[9-(1-Methylimidazol-2-ylthio)nonylthio]-4,5-diphenylimidazole] | 91 | –
10 | c1ccc(-c2nc(SCCSc3nc(-c4ccccc4)c(-c4ccccc4)[nH]3)[nH]c2-c2ccccc2)cc1 [E, 1,2-Bis(4,5-diphenylimidazol-2-ylthio)ethane] | – | In-vitro % Inhibition [1, 3]: 88%
11 | c1ccc(-c2nc(SCCCSc3nc(-c4ccccc4)c(-c4ccccc4)[nH]3)[nH]c2-c2ccccc2)cc1 [F, 1,3-Bis(4,5-diphenylimidazol-2-ylthio)propane] | – | In-vitro % Inhibition [1, 3]: 96%; inhibition in vivo at 0.03 % strength (plasma cholesterol level): 72%
12 | c1ccc(-c2nc(SCCCCSc3nc(-c4ccccc4)c(-c4ccccc4)[nH]3)[nH]c2-c2ccccc2)cc1 [P, 1,4-Bis(4,5-diphenylimidazol-2-ylthio)butane] | 97 | –
13 | C(=C\CSc1nc(-c2ccccc2)c(-c2ccccc2)[nH]1)/CSc1nc(-c2ccccc2)c(-c2ccccc2)[nH]1 [Q, E-1,4-Bis(4,5-diphenylimidazol-2-ylthio)but-2-ene] | 98 | inhibition in vivo at 0.01 % strength (plasma cholesterol level): 74%

More lines, main results first:

Row | In-vitro % Inhibition [1, 2] [%] | Structure (SMILES) | also measured
14 | 88 | c1ccc(-c2nc(SCCCSc3ncccn3)[nH]c2-c2ccccc2)cc1 [A, 2-[3-(Pyrimidin-2-ylthio)propylthio]-4,5-diphenylimidazole] | inhibition in vivo at 0.03 % strength (plasma cholesterol level): 7%
15 | 93 | Cn1ccnc1SCCCSc1nc(-c2ccccc2)c(-c2ccccc2)[nH]1 [C, 2-[3-(1-Methylimidazol-2-ylthio)propylthio]-4,5-diphenylimidazole] | In-vivo % Reduction (plasma cholesterol level): 66%
16 | 84 | Cn1cnnc1SCCCSc1nc(-c2ccccc2)c(-c2ccccc2)[nH]1 [Compound I, 2-[3-(4-Methyl-1,2,4-triazol-3-ylthio)propylthio]-4,5-diphenylimidazole] | inhibition in vivo at 0.01 % strength (plasma cholesterol level): 5%
17 | 19 | Cn1nnnc1S(=O)(=O)CCCSc1nc(-c2ccccc2)c(-c2ccccc2)[nH]1 [Compound L, 2-[3-(1-Methyltetrazol-5-ylsulphonyl)propylthio]-4,5-diphenylimidazole] | –
18 | 84 | Cn1nnnc1SCCCSc1nc(-c2ccccc2)c(-c2ccccc2)[nH]1 [J, 2-[3-(1-Methyltetrazol-5-ylthio)propylthio]-4,5-diphenylimidazole] | inhibition in vivo at 0.01 % strength (plasma cholesterol level): 17%
19 | 95 | c1ccc(-c2nc(SCCCSc3ncc[nH]3)[nH]c2-c2ccccc2)cc1 [M, 2-[3-(Imidazol-2-ylthio)propylthio]-4,5-diphenylimidazole] | inhibition in vivo at 0.01 % strength (plasma cholesterol level): 107%
20 | 94 | Cn1ccnc1SCCCCSc1nc(-c2ccccc2)c(-c2ccccc2)[nH]1 [N, 2-[4-(1-Methylimidazol-2-ylthio)butylthio]-4,5-diphenylimidazole] | inhibition in vivo at 0.03 % strength (plasma cholesterol level): 98%

— patent EP0505468B1, “IMIDAZOLE DERIVATIVES AND THEIR USE AS ACYL COENZYME-A INHIBITORS” (RHONE-POULENC SANTE, priority 1989, dated 1991)
